In paper PMC10079235 (PLOS Neglected Tropical Diseases, 2023):
Structures can show the parent of a compound that is named as a salt. Where two headings read alike, the source gives them in different places.

Experiments:
[1] = test system: HCT-8/NC(NTZ) cells; experiment: MTS cytotoxicity (drug tolerance) assay
Experimental: (§1) Host cell drug tolerance to specified inhibitors was evaluated by 3-(4,5-dimethylthiazol-2-yl)-5-(3-carboxymethoxyphenyl)-2-(4-sulfophenyl)-2H-tetrazolium (MTS) assay. WT and transgenic host cells were seeded in 96-well plates (10,000 cells/well) and cultured for 24 h, followed by the addition of specified compounds at serially diluted concentrations and continued culture for 41 h. After 3 washes with serum-free medium, MTS solution (Saint-Bio, Shanghai, China) was added into the plates (20 μL/well) and incubated at 37°C for 2 h. Optical density at 490 nm (OD490) was measured using a Synergy LX multi-mode reader (BioTek, Winooski, VT). Drug tolerance was indicated by half-maximal cytotoxic concentrations (TC50 values) calculated by nonlinear regression using 4PL model. Selectivity index (SI) for each compound was determined by the ratio between TC50 and EC50 values (SI = TC50/EC50).
(§2) Surviving cells were allowed to recover in drug-free medium for 3–5 d to near confluence (round 1). The selection/recovery cycle were repeated once (round 2). […] Finally, all cells were cultured at the final selection concentrations of PTX or NTZ for ≥7 d, followed by culture in drug-free medium for 14 d. At this time point, cells were used for cytotoxicity and efficacy assays or cryopreserved in a liquid nitrogen tank. The resulting cell lines after PTX or NTZ selection were designated as WT(PTX), NC(PTX) and MDR1(PTX), or WT(NTZ), NC(NTZ) and MDR1(NTZ), respectively (Tables 1 and S2).

[2] = test system: HCT-8/WT(NTZ) cells; experiment: MTS cytotoxicity (drug tolerance) assay
Experimental: as §1, §2

[3] = test system: HCT-8/NC cells; experiment: MTS cytotoxicity (drug tolerance) assay; settings: no drug selection
[4] = test system: HCT-8/MDR1 cells; experiment: MTS cytotoxicity (drug tolerance) assay; settings: for TC50: MDR1 cells, no drug selection, MTS assay
[5] = test system: HCT-8/WT(PTX) cells; experiment: MTS cytotoxicity (drug tolerance) assay
Experimental: as §1
(§3) Surviving cells were allowed to recover in drug-free medium for 3–5 d to near confluence (round 1). The selection/recovery cycle were repeated once (round 2). […] The resulting cell lines after PTX or NTZ selection were designated as WT(PTX), NC(PTX) and MDR1(PTX), or WT(NTZ), NC(NTZ) and MDR1(NTZ), respectively (Tables 1 and S2).

[6] = test system: HCT-8/WT cells; experiment: MTS cytotoxicity (drug tolerance) assay; settings: WT cells, no drug selection; MTS assay
Experimental: as §1

[7] = test system: HCT-8/MDR1(PTX) cells; settings: for Pct change of TC50 (vs NC): MDR1(PTX) vs NC cells
Experimental: as §1, §3

[8] = test system: Cryptosporidium parvum; experiment: Anti-cryptosporidial efficacy assay (44-h infection/qRT-PCR); settings: for EC50: Cryptosporidium parvum; for On-target (Eon) rate at EC50: Eq 2; for Eoff, proportion of off-parasite-target effect / Eon, proportion of on-parasite-target effect: MDR1(PTX) vs. NC model, Eq 3 and 4
[9] = test system: HCT-8/NC(PTX) cells; experiment: MTS cytotoxicity (drug tolerance) assay
Experimental: as §1, §3

[10] = test system: HCT-8/MDR1(NTZ) cells; experiment: MTS cytotoxicity (drug tolerance) assay
Experimental: as §1, §3

[11] = test system: HCT-8/NC cells; settings: human, 41 h
[12] = after selection by PTX vs parent cell line
[13] = after selection by NTZ vs parent cell line

CN(C)C(=O)C(CCN1CCC(O)(c2ccc(Cl)cc2)CC1)(c1ccccc1)c1ccccc1 [Loperamide, Loperamide HCl]
TC50 ([1]; NC(NTZ) cells, after selection by NTZ): 15.64 µM | TC50 ([2]; WT(NTZ) cells, after selection by NTZ): 16.23 µM | TC50 [3]: 16.08 µM | TC50 [4]: 16.49 µM | TC50 ([5]; WT(PTX) cells, after selection by PTX): 16.42 µM | TC50 [6]: 15.96 µM

O=C1c2c(O)ccc(O)c2C(=O)c2c(NCCNCCO)ccc(NCCNCCO)c21 [Mitoxantrone, Mitoxantrone 2HCl]
TC50 ([7]; MDR1(PTX) cells, after selection by PTX): 11.21 µM | Pct change of TC50 (vs NC) [7]: 172.7% | Pct change of TC50 (vs NC) ([7]; listed as MXT): 172.7% | Fold change of TC50 MDR1(PTX) vs. NC ([7]; after selection by PTX): 2.73 | Fold change of TC50 MDR1(PTX) vs. MDR1 [7, 12]: 1.65 | Fold change of TC50 MDR1(PTX)/NC(PTX) ([7]; ratio of TC50): 2.58 | EC50 ([8]; MDR1, read-out: Antiparasitic efficacy (EC50), C. parvum cultured in MDR1(PTX) host cells): 4.16 µM | EC50 ([8]; read-out: Antiparasitic efficacy (EC50), C. parvum cultured in NC host cells): 2.04 µM | EC50 ([8]; read-out: Antiparasitic efficacy (EC50), C. parvum cultured in WT host cells): 2.07 µM | On-target (Eon) rate at EC50 ([8]; MDR1(PTX) cell model): 39.8% | On-target (Eon) rate at EC50 ([8]; MDR1(PTX) cell model, listed as MXT): 39.8% | Off-target (Eoff) rate at EC50 ([8]; MDR1(PTX) cell model, from Pct changes of EC50 and TC50 (Eq 1)): 60.2% | Action on parasite target (on-target) conclusion ([8]; MDR1-transgenic host cell model): partially on-target | Selectivity index (SI) ([8]; TC50/EC50 in MDR1(PTX) cells): 2.69 | Selectivity index (SI) ([8]; TC50/EC50 in NC cells): 2.01 | Selectivity index (SI, k) ([8]; TC50/EC50 in WT cells): 2.08 | Eoff, proportion of off-parasite-target effect ([8]; at EC10): 39.80% | Eon, proportion of on-parasite-target effect ([8]; at EC10): 60.20% | Eoff, proportion of off-parasite-target effect ([8]; at EC20): 47.10% | Eon, proportion of on-parasite-target effect ([8]; at EC20): 52.90% | Eoff, proportion of off-parasite-target effect ([8]; at EC30): 52.00% | Eon, proportion of on-parasite-target effect ([8]; at EC30): 48.00% | Eoff, proportion of off-parasite-target effect ([8]; at EC40): 56.10% | Eon, proportion of on-parasite-target effect ([8]; at EC40): 43.90% | Eoff, proportion of off-parasite-target effect ([8]; at EC50): 60.0% | Eon, proportion of on-parasite-target effect ([8]; at EC50): 40.0% | Eoff, proportion of off-parasite-target effect ([8]; at EC60): 63.90% | Eon, proportion of on-parasite-target effect ([8]; at EC60): 36.10% | Eoff, proportion of off-parasite-target effect ([8]; at EC70): 68.20% | Eon, proportion of on-parasite-target effect ([8]; at EC70): 31.80% | Eoff, proportion of off-parasite-target effect ([8]; at EC80): 73.60% | Eon, proportion of on-parasite-target effect ([8]; at EC80): 26.40% | Eoff, proportion of off-parasite-target effect ([8]; at EC90): 81.90% | Eon, proportion of on-parasite-target effect ([8]; at EC90): 18.10% | Fold increase of TC50 NC(NTZ) vs. NC [1, 13]: 1.02 | TC50 ([1]; human, 41 h): 4.19 µM | Fold increase of TC50 WT(NTZ) vs. WT [2, 13]: 0.96 | TC50 ([2]; human, 41 h): 4.15 µM | TC50 [4]: 6.79 µM | Fold change of TC50 MDR1/NC ([4]; ratio of TC50, MDR1 vs NC cells): 1.65 | Fold change of TC50 NC(PTX) vs. NC [9, 12]: 1.06 | TC50 ([9]; human, 41 h): 4.34 µM | Fold change of TC50 WT(PTX) vs. WT [5, 12]: 0.98 | TC50 ([5]; human, 41 h): 4.23 µM | TC50 ([10]; MDR1(NTZ) cells, after selection by NTZ): 6.74 µM | Fold increase of TC50 MDR1(NTZ) vs. NC ([10]; after selection by NTZ): 1.64 | Fold increase of TC50 MDR1(NTZ) vs. MDR1 [10, 13]: 0.99 | TC50 [6]: 4.31 µM | TC50 [11]: 4.11 µM
